Test results published in article PMC12445503 (Channels, 2025).

Columns and labels:
Format in all cases: cell-based
Cav2.3 = target: T1, Cav2.3 (Homo sapiens, UniProt Q15878); test: whole-cell patch-clamp, […], […] Ca2+, HP -89 mV, […] Hz; conditions: read-out: % remaining ICa / 10 μM
T1 construct: gene CACNA1E; Cav2.3e α1 transiently expressed in tsA-201 cells; with auxiliary β3 and α2δ1 subunits

Cav1.3 = target: T2, Cav1.3 (Homo sapiens, UniProt Q01668); test: whole-cell patch-clamp concentration-response, […] Ca2+, HP -89 mV, […] Hz
T2 construct: gene CACNA1D; human Cav1.3S (C-terminal short splice variant, exon 8b) α1 stably expressed in tsA-201 cells; with auxiliary β3 (rat) and α2δ1 (rabbit) subunits
T2 sequence (Q01668 whole entry, canonical isoform): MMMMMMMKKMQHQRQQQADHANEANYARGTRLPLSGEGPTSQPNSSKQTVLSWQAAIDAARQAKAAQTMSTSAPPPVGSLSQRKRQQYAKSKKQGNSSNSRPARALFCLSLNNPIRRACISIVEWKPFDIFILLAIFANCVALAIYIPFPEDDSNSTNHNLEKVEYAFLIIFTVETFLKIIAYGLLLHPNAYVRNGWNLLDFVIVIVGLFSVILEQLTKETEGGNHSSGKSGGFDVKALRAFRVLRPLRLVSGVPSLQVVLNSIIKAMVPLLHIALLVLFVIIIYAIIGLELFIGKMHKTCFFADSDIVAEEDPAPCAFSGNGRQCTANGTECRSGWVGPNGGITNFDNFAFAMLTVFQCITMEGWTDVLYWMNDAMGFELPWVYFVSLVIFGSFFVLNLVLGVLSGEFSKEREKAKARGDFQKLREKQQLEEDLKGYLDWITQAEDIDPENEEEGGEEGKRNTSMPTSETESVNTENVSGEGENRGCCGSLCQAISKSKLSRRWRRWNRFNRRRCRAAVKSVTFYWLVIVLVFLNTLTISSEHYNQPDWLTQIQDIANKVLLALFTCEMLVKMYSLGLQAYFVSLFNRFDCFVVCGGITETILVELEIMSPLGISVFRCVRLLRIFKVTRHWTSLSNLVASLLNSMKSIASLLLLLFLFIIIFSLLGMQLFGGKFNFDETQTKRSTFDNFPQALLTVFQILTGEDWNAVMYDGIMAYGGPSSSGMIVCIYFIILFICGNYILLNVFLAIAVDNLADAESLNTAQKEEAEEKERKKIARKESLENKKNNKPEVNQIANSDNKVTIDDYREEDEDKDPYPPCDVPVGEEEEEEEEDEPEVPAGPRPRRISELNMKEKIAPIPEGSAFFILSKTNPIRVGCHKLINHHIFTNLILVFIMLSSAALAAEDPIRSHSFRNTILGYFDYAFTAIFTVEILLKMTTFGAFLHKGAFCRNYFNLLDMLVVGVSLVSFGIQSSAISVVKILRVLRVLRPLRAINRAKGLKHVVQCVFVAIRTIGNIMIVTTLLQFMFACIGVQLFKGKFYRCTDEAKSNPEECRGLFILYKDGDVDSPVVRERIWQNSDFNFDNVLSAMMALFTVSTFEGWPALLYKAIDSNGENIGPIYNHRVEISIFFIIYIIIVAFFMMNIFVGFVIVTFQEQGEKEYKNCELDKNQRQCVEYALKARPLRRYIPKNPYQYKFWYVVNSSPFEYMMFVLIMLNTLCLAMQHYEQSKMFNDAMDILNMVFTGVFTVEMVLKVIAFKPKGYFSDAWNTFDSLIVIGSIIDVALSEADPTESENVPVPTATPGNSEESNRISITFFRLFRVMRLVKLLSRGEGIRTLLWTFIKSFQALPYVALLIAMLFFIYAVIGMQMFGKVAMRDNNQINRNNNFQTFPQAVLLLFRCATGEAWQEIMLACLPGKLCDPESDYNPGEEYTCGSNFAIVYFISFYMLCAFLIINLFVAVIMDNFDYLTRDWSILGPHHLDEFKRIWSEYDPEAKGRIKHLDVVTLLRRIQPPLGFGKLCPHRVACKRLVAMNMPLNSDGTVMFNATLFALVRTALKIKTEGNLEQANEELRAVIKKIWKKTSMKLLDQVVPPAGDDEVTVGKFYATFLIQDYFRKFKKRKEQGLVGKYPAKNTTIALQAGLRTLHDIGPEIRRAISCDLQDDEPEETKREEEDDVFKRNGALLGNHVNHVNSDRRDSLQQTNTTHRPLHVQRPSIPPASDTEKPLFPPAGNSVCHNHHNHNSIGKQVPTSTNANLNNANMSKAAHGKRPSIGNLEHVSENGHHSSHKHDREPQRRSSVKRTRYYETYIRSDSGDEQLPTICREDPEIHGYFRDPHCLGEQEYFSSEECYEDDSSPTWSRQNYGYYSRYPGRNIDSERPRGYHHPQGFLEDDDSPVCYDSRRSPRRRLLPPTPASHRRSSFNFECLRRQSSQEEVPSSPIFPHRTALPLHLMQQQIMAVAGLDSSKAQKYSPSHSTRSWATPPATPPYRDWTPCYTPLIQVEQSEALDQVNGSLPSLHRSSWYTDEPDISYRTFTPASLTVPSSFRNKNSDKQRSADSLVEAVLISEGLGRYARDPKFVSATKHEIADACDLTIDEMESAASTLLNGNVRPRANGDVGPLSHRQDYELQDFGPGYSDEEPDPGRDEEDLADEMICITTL
T2 sequence (P54287 whole entry partner, canonical isoform): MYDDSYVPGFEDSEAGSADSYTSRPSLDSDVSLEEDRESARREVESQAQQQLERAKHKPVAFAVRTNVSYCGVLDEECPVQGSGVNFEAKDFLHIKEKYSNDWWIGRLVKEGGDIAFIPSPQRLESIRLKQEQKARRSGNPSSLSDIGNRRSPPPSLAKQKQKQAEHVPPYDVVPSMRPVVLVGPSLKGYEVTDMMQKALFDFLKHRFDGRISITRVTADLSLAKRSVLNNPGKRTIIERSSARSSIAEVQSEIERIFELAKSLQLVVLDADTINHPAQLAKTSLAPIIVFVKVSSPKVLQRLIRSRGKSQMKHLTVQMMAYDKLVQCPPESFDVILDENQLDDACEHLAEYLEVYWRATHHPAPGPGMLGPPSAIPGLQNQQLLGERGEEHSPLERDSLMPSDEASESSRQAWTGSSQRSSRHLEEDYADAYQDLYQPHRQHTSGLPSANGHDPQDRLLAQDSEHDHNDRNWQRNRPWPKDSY
T2 sequence (P13806 27-960 partner): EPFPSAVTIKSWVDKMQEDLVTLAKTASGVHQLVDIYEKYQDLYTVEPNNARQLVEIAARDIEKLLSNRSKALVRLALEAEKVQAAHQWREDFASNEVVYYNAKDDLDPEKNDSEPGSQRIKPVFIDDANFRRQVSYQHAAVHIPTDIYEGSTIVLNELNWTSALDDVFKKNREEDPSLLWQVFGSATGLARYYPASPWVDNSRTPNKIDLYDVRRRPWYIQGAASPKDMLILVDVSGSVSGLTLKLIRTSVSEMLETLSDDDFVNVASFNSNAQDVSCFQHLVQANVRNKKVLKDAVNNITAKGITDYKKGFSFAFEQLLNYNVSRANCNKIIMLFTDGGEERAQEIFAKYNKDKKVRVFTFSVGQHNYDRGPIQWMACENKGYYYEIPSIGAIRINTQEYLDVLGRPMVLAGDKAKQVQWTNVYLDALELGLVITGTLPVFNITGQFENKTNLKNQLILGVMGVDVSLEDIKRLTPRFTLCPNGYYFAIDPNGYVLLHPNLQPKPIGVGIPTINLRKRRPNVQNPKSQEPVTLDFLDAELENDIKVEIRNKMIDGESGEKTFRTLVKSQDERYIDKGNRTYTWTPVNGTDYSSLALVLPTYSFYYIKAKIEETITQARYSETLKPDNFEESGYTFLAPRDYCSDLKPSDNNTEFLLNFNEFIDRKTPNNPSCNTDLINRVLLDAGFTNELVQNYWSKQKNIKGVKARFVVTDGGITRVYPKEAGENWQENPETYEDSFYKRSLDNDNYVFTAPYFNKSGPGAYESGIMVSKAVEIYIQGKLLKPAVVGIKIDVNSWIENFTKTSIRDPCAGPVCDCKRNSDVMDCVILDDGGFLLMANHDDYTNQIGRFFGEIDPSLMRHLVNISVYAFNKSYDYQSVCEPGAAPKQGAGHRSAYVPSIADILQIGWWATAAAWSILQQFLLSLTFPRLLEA
T2 sequence (P13806 961-1106 partner): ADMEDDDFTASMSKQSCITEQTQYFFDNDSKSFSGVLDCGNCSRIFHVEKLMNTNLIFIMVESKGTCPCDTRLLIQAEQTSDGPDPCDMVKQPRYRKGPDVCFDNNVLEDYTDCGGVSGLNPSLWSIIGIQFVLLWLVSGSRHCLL

Cav1.2 = target: T3, Cav1.2 (Homo sapiens, UniProt Q13936); test: as above
T3 construct: gene CACNA1C; human Cav1.2 α1 stably expressed in tsA-201 cells; with auxiliary β3 (rat) and α2δ1 (rabbit) subunits

Structure (SMILES) | remaining activity at 10 µM (Cav2.3) [%] | IC50 (Cav1.3) [µM] | IC50 (Cav1.2) [µM]
C=C[C@](C)(O)CC[C@@H]1[C@@]2(C)CCCC(C)(C)[C@@H]2CC[C@@]1(C)O [sclareol] | 36.7 ± 11.2 | 16.3 | 12.5
COC(=O)C1=C(C)NC(C)=C(C(=O)OC(C)C)C1c1cccc2nonc12 (stereo not shown) [isradipine] | – | 0.134 | –
